# Publication PMC9181543, “Lysosomal Exocytosis of Olivacine on the Way to Explain Drug Resistance in Cancer Cells” (International Journal of Molecular Sciences, 2022)
# How the values were obtained:
# A549 cells [1] = assay: MTT assay (mitochondrial activity), A549; assay type: cell-based; conditions: Homo sapiens
# Method: (§1) The anticancer activity of tested compounds was assessed on five human cell lines selected from the panel of tumor cell lines recommended by the National Cancer Institute: A495 (lung carcinoma), CCRF/CEM (acute lymphoblastic leukemia), LoVo and LoVo/DX (two types of colorectal: non-resistant and resistant to doxorubicin), and MCF-7 (breast adenocarcinoma). In addition, the NHDF cell line (normal human dermal fibroblasts) was used to estimate cytotoxicity to noncancer cells. The A549, CCRF/CEM, LoVo, LoVo/DX, and MCF-7 cells were obtained from ECACC, and NHDF cells from LONZA, Belgium. The A549 and MCF-7 cells were grown in EMEM medium, CCRF/CEM cells in RPMI-1640, LoVo and LoVo/DX cells in DMEM/F-12, and NHDF cells in DMEM without phenol red. The cells were seeded in […] in the biological assay, as recommended by the National Cancer Institute. All culture media were supplemented with L-glutamine, penicillin, streptomycin, and 10% fetal bovine serum (FBS). Cells were incubated at 37 °C and 5% CO2. An assessment of the mitochondrial cell activity after applying tested compounds was carried out using the test MTT assay, recommended in the ISO 10993-5:2009 standard. As in the SRB assay, the cells were exposed to tested compounds after 24 h of initial incubation in 96-well plates. The MTT solution (1 mg/mL) was added to each well, and cells were incubated for 2 h. Finally, the supernatant was removed, and the formazan crystals were dissolved in isopropanol. After 30 min, absorbance at 570 nm in Victor2 microplate reader (PerkinElmer). Cell viability was determined as the IC50 ratio, i.e., the concentration of the compound in which the viability was reduced by half compared with the control.
# LoVo cells [2] = assay: SRB assay (total protein content), LoVo; assay type: cell-based; conditions: Homo sapiens, 48 h incubation
# Method: (§2) The anticancer activity of tested compounds was assessed on five human cell lines selected from the panel of tumor cell lines recommended by the National Cancer Institute: A495 (lung carcinoma), CCRF/CEM (acute lymphoblastic leukemia), LoVo and LoVo/DX (two types of colorectal: non-resistant and resistant to doxorubicin), and MCF-7 (breast adenocarcinoma). In addition, the NHDF cell line (normal human dermal fibroblasts) was used to estimate cytotoxicity to noncancer cells. The A549, CCRF/CEM, LoVo, LoVo/DX, and MCF-7 cells were obtained from ECACC, and NHDF cells from LONZA, Belgium. The A549 and MCF-7 cells were grown in EMEM medium, CCRF/CEM cells in RPMI-1640, LoVo and LoVo/DX cells in DMEM/F-12, and NHDF cells in DMEM without phenol red. The cells were seeded in […] in the biological assay, as recommended by the National Cancer Institute. All culture media were supplemented with L-glutamine, penicillin, streptomycin, and 10% fetal bovine serum (FBS). Cells were incubated at 37 °C and 5% CO2. One of the most popular in vitro tests to evaluate the activity of compounds with potential antitumor activity is the SRB assay. The sulforhodamine B dye is used, which binds to the protein at the appropriate pH. The assay allows for assessing cell mass and, indirectly, their proliferation. The advantage of the assay is that it measures cellular protein content and not the activity of any enzymes. The SRB assay was carried out according to the National Cancer Institute procedure. Cells were incubated in a culture medium for 24 h in 96-well plates. After 24 h, the control plate for each cell line was fixed with TCA to evaluate cell culture before treatment with tested compounds. […] Cell cultures were then fixed by adding 50% TCA at 4 °C for 1 h. After removing the supernatant, the plates were washed with water and dried. […] Growth inhibition was calculated following the NCI guidelines and expressed as the GI50 ratio, i.e., the concentration of the compound in which the amount of protein was reduced by half compared with the control.
# LoVo/DX cells [3] = assay: SRB assay (total protein content), LoVo/DX; assay type: cell-based; conditions: Homo sapiens, LoVo/DX cells (doxorubicin-resistant), 48 h incubation
# Method: as §2
# CCRF/CEM cells [4] = assay: SRB assay (total protein content), CCRF/CEM; assay type: cell-based; conditions: Homo sapiens, 48 h incubation
# Method: as §2
# MCF-7 cells [5] = assay: SRB assay (total protein content), MCF-7; assay type: cell-based; conditions: Homo sapiens, MCF7, 48 h incubation
# Method: as §2
# LoVo/DX cells [6] = assay: MTT assay (mitochondrial activity), LoVo/DX; assay type: cell-based; conditions: Homo sapiens, LoVo/DX cells (doxorubicin-resistant)
# Method: as §1
# MCF-7 cells [7] = assay: MTT assay (mitochondrial activity), MCF-7; assay type: cell-based; conditions: Homo sapiens, MCF7
# Method: as §1
# NHDF cells [8] = assay: MTT assay (mitochondrial activity), NHDF; assay type: cell-based; conditions: Homo sapiens, NHDF normal cells
# Method: as §1
# LoVo cells [9] = assay: MTT assay (mitochondrial activity), LoVo; assay type: cell-based; conditions: Homo sapiens
# Method: as §1
# NHDF cells [10] = assay: SRB assay (total protein content), NHDF; assay type: cell-based; conditions: Homo sapiens, NHDF normal cells, 48 h incubation
# Method: as §2
# CCRF/CEM cells [11] = assay: MTT assay (mitochondrial activity), CCRF/CEM; assay type: cell-based; conditions: Homo sapiens
# Method: as §1
# A549 cells [12] = assay: Proton pump blocking test (omeprazole) for lysosomal exocytosis; assay type: cell-based, human; conditions: 200 µM for 1 h before test compounds
# Method: To assess whether the exocytosis of olivacine and ellipticine from cancer cells is lysosomal, a proton pump blocking test was performed. Omeprazole was added into A549 cells at a concentration of 200 µM for 1 h. The cell culture was then washed twice with PBS, and the cells were treated with tested compounds. The cell culture was assessed using an Evos FL microscope. The lysosomes were stained using LysoTracker™ Deep Red kit (L12492; Invitrogen). Cultured cells were evaluated using an Evos FL microscope, taking photos every 15 min. After treatment with olivacine or olivacine and omeprazole, analysis of mean cell fluorescence was performed from five independent replicates. In addition, 14 pictures were taken from each replicate, and 100 cells were analyzed by photomicrography using the ImageJ platform.
SMILES,IC50 (A549 cells [1]) [µM],GI50 (LoVo cells [2]) [µM],GI50 (LoVo/DX cells [3]) [µM],GI50 (CCRF/CEM cells [4]) [µM],GI50 (MCF-7 cells [5]) [µM],IC50 (LoVo/DX cells [6]) [µM],IC50 (MCF-7 cells [7]) [µM],IC50 (NHDF cells [8]) [µM],IC50 (LoVo cells [9]) [µM],GI50 (NHDF cells [10]) [µM],IC50 (CCRF/CEM cells [11]) [µM],effect on exocytosis of olivacine and ellipticine (A549 cells [12])
COc1cccc2c1C(=O)c1c(O)c3c(c(O)c1C2=O)C[C@@](O)(C(=O)CO)C[C@@H]3O[C@H]1C[C@H](N)[C@H](O)[C@H](C)O1 [Doxorubicin],13.8 ± 1.03,1.62 ± 0.45,14.1 ± 3.42,0.74 ± 0.02,1.44 ± 0.23,86.4 ± 25.4,4.33 ± 0.55,18.2 ± 4.46,10.2 ± 1.27,13.7 ± 5.29,1.03 ± 0.02,
COc1ccc2[nH]c([S+]([O-])Cc3ncc(C)c(OC)c3C)nc2c1 (stereo not drawn) [Omeprazole],,,,,,,,,,,,protect against exocytosis
